From US7129346B2, “Crown ether derivatives” (Molecular Probes, Inc., priority 2000, dated 2006)
“Also recorded” adds a separate entry of the source.

Tests used:
[1] = Indicator fluorescence response titration, dissociation constant for Ca2+; assay type: binding; conditions: Table 1, Formula (I) compounds, read-out: Dissociation Constant (target ion) Kd (Ca^2+)
Description: (§1) The fluorescence response of a selected compound of the invention as a function of ion concentration was determined by dissolving a sample of the pure compound in 3 mL of each of two solutions: solution 1 (“high”) consists of 200 mM NaCl (or other appropriate ion) and 10 mM MOPS buffer at pH 7.05; solution 2 (“zero”) consists of 10 mM MOPS buffer at pH 7.05 in deionized water. […]. A least-squares fit was used to arrive at the concentration where the selected indicator was maximally sensitive to changes in Na^+ concentration. This corresponded to the dissociation constant of that indicator for Na^+ and was expressed as a concentration.

[2] = Indicator fluorescence response titration, dissociation constant for Na+; assay type: binding
Description: as §1
(§2) This methodology was repeated for K+, Li+ and Tb+ to obtain emission spectra and to calculate the Kd values. See, Table 2 and FIG. 4
For visible wavelength probes such as Compound 22 (Example 17), Compound 27 (Example 22) and Compound 86 (Example 79) the indicator's fluorescence emission was typically scanned from 450–650 nm while the sample was excited at the absorption maximum wavelength. For UV-excitable ratiometric probes such as Compound 51 (Example 46), the excitation wavelengths of the dye in solution 2 were scanned from 260 to 450 nm while monitoring constant fluorescence emission at 510 nm (as in FIG. 1). […]

[3] = Indicator fluorescence response titration, dissociation constant for Li+; assay type: binding; conditions: Table 2, Formula (II) compounds, in solution
Description: as §1, §2
(§3) For visible wavelength probes such as Compound 22 (Example 17), Compound 27 (Example 22) and Compound 86 (Example 79) the indicator's fluorescence emission was typically scanned from 450–650 nm while the sample was excited at the absorption maximum wavelength. For UV-excitable ratiometric probes such as Compound 51 (Example 46), the excitation wavelengths of the dye in solution 2 were scanned from 260 to 450 nm while monitoring constant fluorescence emission at 510 nm (as in FIG. 1).

[4] = Indicator fluorescence response titration, dissociation constant for Rb+; assay type: binding; conditions: Table 2, Formula (II) compounds, in solution
Description: as §1, §2, §3

[5] = Indicator fluorescence response titration, dissociation constant for K+; assay type: binding
Description: The fluorescence response of a selected compound of the invention as a function of ion concentration was determined by dissolving a sample of the pure compound in 3 mL of each of two solutions: solution 1 (“high”) consists of 200 mM NaCl (or other appropriate ion) and 10 mM MOPS buffer at pH 7.05; solution 2 (“zero”) consists of 10 mM MOPS buffer at pH 7.05 in deionized water. A series of curves are generated by cross dilution between the two solutions to arrive at intermediate concentrations of Na+, K+, Li+ and Tb+. The emission of a selected indicator in solution 2 was scanned and then was repeated to cover the entire range from zero to 200 mM Na^+. For example, the fluorescence emission of the chosen indicator was scanned while the sample was excited at that indicator's absorption maximum wavelength, and then 1/100 of the sample was removed and replaced with 1/100 of solution 1 to arrive at a Na^+ concentration of 2 mM. This dilution was repeated to cover the entire range from zero to […] Na^+ and the resulting emission intensities were plotted versus the ion concentrations. A least-squares fit was used to arrive at the concentration where the selected indicator was maximally sensitive to changes in Na^+ concentration. This corresponded to the dissociation constant of that indicator for Na^+ and was expressed as a concentration.
as §2, §3

Jurkat cells = test: Calibration of sodium indicator fluorescence response in cells (flow cytometry); assay type: cell-based; conditions: 2 μM gramicidin, extracellular Na+ 0-145 mM, excitation 488 nm; for Intracellular fluorescence response to increasing intracellular Na^+ concentration: Jurkat cells, 5 μM Compound 25 or 10 μM Compound 87
Description: Jurkat cells were loaded with a 5 μM solution of either Compound 25 (Example 20), or commercially available SODIUM GREEN tetraacetate indicator (Molecular Probes, Inc., Eugene, Oreg.) and 10 μM for Compound 87 (Example 80) for 30 minutes at 37° C. The use of PLURONIC dispersing agent helped dissolve the selected indicator. Intracellular sodium concentrations were then established by varying the sodium concentration of the extracellular buffer in the presence of 2 μM gramicidin (a sodium-pore forming antibiotic). The extracellular buffer was set at 0 mM, 10 mM, 20 mM, 50 mM, 100 mM, and 145 mM, respectively. Intracellular fluorescence response of the selected indicators was measured using a FACSCAN flow cytometer and associated software, with fluorescence excitation at 488 nm.

[6] = Indicator fluorescence response titration, dissociation constant for Zn2+; assay type: binding; conditions: Table 1, Formula (I) compounds; approximate values; read-out: Dissociation Constant (target ion) Kd (Zn^2+)
Description: as §1

[7] = Table 1, Formula (I) compounds, approximate values, read-out: Dissociation Constant (target ion) Kd (Na^+)
[8] = Table 2, Formula (II) compounds, in solution
[9] = Table 2, Formula (II) compounds, in solution, 10 mM MOPS pH 7.05, read-out: Dissociation constant Kd (Na^+)

**Q.** With Cc1ccc2c(c1)OCCOc1cc3cc(-c4ncc(C(=O)O)o4)oc3cc1N(CC(=O)O)CCOCCN2CC(=O)O as the compound, how does the Kd ([1]; approximate value) read?
**A.** Its Kd is about 0.0004 mM.

**Q.** With COC(=O)CN1CCOCCN(CC(=O)OC)c2cc3oc(-c4ncc(C(=O)O)o4)cc3cc2OCCOc2cc(C)ccc21 as the compound, how does the Kd [2, 7] read?
**A.** The Kd was about 52 mM.

**Q.** Which “Response to complexation (R = F/F0), R (Na^+)” value (“Response … (Na^+)” for short) [2, 8] does the source give for COCCN1CCOCCOCCOCCOc2cc(-c3cc4ccc(C(=O)OC)cc4[nH]3)ccc21 [Compound 120] here?
**A.** Its value is 2.

**Q.** What about the Kd [2, 9] of the same compound?
**A.** The Kd was 89 mM.

**Q.** For COC(=O)CN1CCOCCOCCOCCOc2cc(-c3c4cc(F)c(=O)cc-4oc4cc(O)c(F)cc34)ccc21 [Compound 86], which “Response to complexation (R = F/F0), R (Li^+)” value [3] is on record?
**A.** Its value is 6.8.

**Q.** What about the “Response to complexation (R = F/F0), R (Rb^+)” value [4] of the same compound?
**A.** The value was 2.7.

**Q.** What about the “Response to complexation (R = F/F0), R (K^+)” value [5, 8] of the same compound?
**A.** The value was 6.9.

**Q.** What about the “Response … (Na^+)” value [2, 8] of the same compound?
**A.** Its value is 28.5.

**Q.** What about the Kd [2, 9] of the same compound?
**A.** The Kd was 82 mM.

**Q.** Which “Intracellular fluorescence intensity compared with SODIUM GREEN indicator” value (Jurkat cells; Jurkat cells loaded with 5 μM for 30 minutes at 37° C., FIG. 3) does the source give for COC(=O)OCOC(=O)CN1CCOCCN(CC(=O)OCOC(C)=O)c2ccc(C)cc2OCCOc2cc(C3=C4C=C(F)C(O)C=C4Oc4cc(OCOC(C)=O)c(F)cc43)ccc21 (centres unmarked) [Compound 25] here?
**A.** The value was “stronger fluorescence intensity than SODIUM GREEN sodium indicator; also recorded: substantially brighter intracellular fluorescence intensity than the SODIUM GREEN indicator”.

**Q.** And the “Intracellular fluorescence response to increasing intracellular Na^+ concentration” value (Jurkat cells)?
**A.** Its value is “consistent increase in fluorescence intensity”.

**Q.** With COC(=O)CN1CCOCCOCCOCCOc2cc(-c3c4cc(F)c(=O)cc-4oc4cc(OCOC(C)=O)c(F)cc34)ccc21 [Compound 87] as the compound, how does the “Intracellular fluorescence response to increasing intracellular Na^+ concentration” value (Jurkat cells) read?
**A.** The value was “increased fluorescent signal with increasing concentrations of sodium ions”.

**Q.** With COC(=O)CN1CCOCCOCCOCCOc2cc(-c3cc4ccc(C(=O)OC)cc4[nH]3)ccc21 [Compound 93] as the compound, how does the “Dissociation constant Kd (K^+)” value ([5]; Table 2, Formula (II) compounds, in solution, 10 mM MOPS pH 7.05) read?
**A.** The value was “Kd (K^+) = no sensitivity”.

**Q.** And the “Response … (Na^+)” value [2, 8]?
**A.** The value was 25.

**Q.** What about the Kd [2, 9] of the same compound?
**A.** The Kd was 89 mM.

**Q.** Which Kd [2, 7] does the source give for COC(=O)CN1CCOCCN(CC(=O)OC)c2ccc(-c3c4cc(F)c(=O)cc-4oc4cc(O)c(F)cc34)cc2OCCOc2cc(C)ccc21 here?
**A.** Its Kd is about 60 mM.

**Q.** For Cc1ccc2c(c1)OCCOc1cc(-c3c4cc(F)c(=O)cc-4oc4cc(O)c(F)cc34)ccc1N(CC(=O)O)CCOCCN2CC(=O)O, which Kd ([1]; approximate values) is on record?
**A.** Its Kd is about 0.005 mM.

**Q.** And the Kd [2, 7]?
**A.** The Kd was about 36 mM.

**Q.** And the Kd [6]?
**A.** Its Kd is about 0.0003 mM.

**Q.** Which results are given for O=C([O-])CN1CCOCCOCCOCCOc2cc(-c3c4cc(F)c(=O)cc-4oc4cc(O)c(F)cc34)ccc21.[K+] [Compound 127]?
**A.** Response to complexation (R = F/F0), R (Na^+) [2, 8]: 3.6; Kd [2, 9]: 20 mM

**Q.** Which “Response … (Na^+)” value [2, 8] does the source give for COC(=O)c1ccc2cc(-c3ccc4c(c3)OCCOCCOCCOCCN4CCN(C)C)[nH]c2c1 [Compound 126] here?
**A.** The value was −1.2.

**Q.** Which Kd ([5]; Table 1, Formula (I) compounds, approximate value printed in nM, read-out: Dissociation Constant (target ion) Kd (K^+)) does the source give for COC(=O)CN1CCOCCN(CC(=O)OC)c2ccc(-c3cc4ccc(C(=O)OC)cc4[nH]3)cc2OCCOc2cc(C)ccc21 here?
**A.** Its Kd is about 115 nM.

**Q.** What about the Kd [2, 7] of the same compound?
**A.** Its Kd is about 30 mM.

**Q.** What does the source list for Cc1ccc2c(c1)OCCOc1cc(-c3c4ccc(=[N+](C)C)cc-4oc4cc(N(C)C)ccc34)c(OCC(=O)O)cc1N(CC(=O)O)CCOCCN2CC(=O)O?
**A.** Kd [2, 7]: ~70 mM; Kd [6]: ~0.0001 mM

**Q.** Which results are given for Cc1ccc2c(c1)OCCOc1cc(C3=c4cc5c6c(c4Oc4c3cc3c7c4CCCN7CCC3)CCC[N+]=6CCC5)ccc1N(CC(=O)O)CCOCCN2CC(=O)[O-]?
**A.** Kd ([1]; approximate values): ~0.007 mM; Kd [6]: ~0.008 mM

**Q.** With COCCN1CCOCCOCCOCCOc2cc(-c3c4cc(F)c(=O)cc-4oc4cc(O)c(F)cc34)ccc21 [Compound 115] as the compound, how does the “Response to complexation (R = F/F0), R (K^+)” value [5, 8] read?
**A.** The value was 2.8.

**Q.** What about the “Response … (Na^+)” value [2, 8] of the same compound?
**A.** The value was 5.9.

**Q.** And the Kd [2, 9]?
**A.** The Kd was 78.8 mM.

**Q.** For COC(=O)CN1CCOCCN(CC(=O)OC)c2cc(OCC(=O)[O-])c(-c3c4ccc(=[N+](C)C)cc-4oc4cc(N(C)C)ccc34)cc2OCCOc2cc(C)ccc21, which Kd [2, 7] is on record?
**A.** The Kd was about 92 mM.

**Q.** Which Kd [6] does the source give for Cc1ccc2c(c1)OCCOc1cc(-c3c4ccc(=[N+](C)C)cc-4oc4cc(N(C)C)ccc34)ccc1N(CC(N)=O)CCOCCN2CC(N)=O here?
**A.** The Kd was about 0.65 mM.

**Q.** For COC(=O)CN1CCOCCN(CC(=O)OC)c2ccc(-c3c4ccc(=[N+](C)C)cc-4oc4cc(N(C)C)ccc34)cc2OCCOc2cc(C)ccc21, which Kd [2, 7] is on record?
**A.** The Kd was about 95 mM.

**Q.** Which Kd [2, 7] does the source give for COC(=O)CN1CCOCCN(CC(=O)OC)c2cc(OCC(=O)O)c(-c3cc4ccc(C(=O)OC)cc4[nH]3)cc2OCCOc2cc(C)ccc21 here?
**A.** The Kd was about 52 mM.

**Q.** Which Kd [2, 7] does the source give for CCCCCCCCCCCCCCCCCCNC(=O)COc1cc2c(cc1-c1c3ccc(=[N+](C)C)cc-3oc3cc(N(C)C)ccc13)OCCOc1cc(C)ccc1N(CC(=O)OC)CCOCCN2CC(=O)OC here?
**A.** The Kd was about 14 mM.

**Q.** With COC(=O)CN1CCOCCN(CC(=O)OC)c2cc(OCC(=O)NC(CC(=O)O)C(=O)[O-])c(-c3c4ccc(=[N+](C)C)cc-4oc4cc(N(C)C)ccc34)cc2OCCOc2cc(C)ccc21 (centres unmarked) as the compound, how does the Kd [2, 7] read?
**A.** The Kd was about 85 mM.

**Q.** What does the source list for Cc1ccc2c(c1)OCCOc1cc(-c3c4ccc(=[N+](C)C)cc-4oc4cc(N(C)C)ccc34)ccc1N(CC(=O)O)CCOCCN2CC(=O)[O-]?
**A.** Kd ([1]; approximate values): ~0.004 mM; Kd [2, 7]: ~38 mM; Kd [6]: ~0.0003 mM

**Q.** For Cc1ccc2c(c1)OCCOc1cc(-c3c4cc(F)c(=O)cc-4oc4cc(O)c(F)cc34)ccc1N(CC(N)=O)CCOCCN2CC(N)=O, which Kd [6] is on record?
**A.** The Kd was about 0.6 mM.
